Laboratory results as given in paper PMC7160832, “Phosphonium Ionic Liquid-Infused Poly(vinyl chloride) Surfaces Possessing Potent Antifouling Properties” (ACS Omega, 2020).

Legend:
S. aureus (ATCC 6538) = assay: MIC and MBC by standardized broth dilution; assay type: cell-based, Staphylococcus aureus; conditions: for MBC: 99.9% killing; for MBC / MIC: >1000 = beyond tested concentration range; for MIC: 24 h, MHB
Protocol: (§1) S. aureus (ATCC 6538) and P. aeruginosa (PA01) were maintained on cryopreservative beads (Microbank) at −80 °C and cultivated in 100 mL of MHB at 37 °C when needed. Overnight broth was centrifuged (3000 rpm, 12 min) and resuspended in PBS to achieve a final inoculum density of approximately 1 × 10^8 cfu mL^–1.
(§2) The microbiological performance of the ionic liquids was assessed using MHB inoculated with S. aureus or P. aeruginosa according to a standardized broth dilution method.[25] A stock solution of 0.2% w/v of ionic liquid was freshly prepared in sterile MHB by stirring at 37 °C until dissolved and then filtered using a sterile 0.22 μm membrane. Serial twofold dilutions were prepared to provide a concentration range of […] to 0.1% w/v. Inoculum was diluted in MHB to produce a final inoculum density of 1 × 10^6 cfu mL^–1, verified by viable count. The inoculum (100 μL) was added to an equal volume of ionic liquid and incubated for 24 h (37 °C, 100 rpm). Positive (100 μL ofMHB/100 μL of inoculum) and negative controls (200 μL of MHB) were included in each assay. A minimum of five replicates of each dilution and controls were included.
(§3) Determination of the MIC was taken as the lowest concentration that produced no visible growth after 24 h incubation.

equine erythrocytes = assay: Hemolysis assay of PILs; assay type: cell-based; conditions: for hemolysis: 1 h, 37 °C; for hemolytic activity (in words): concentrations up to 25 μg mL^–1, equine erythrocytes
Protocol: To assess the potential of phosphonium-AOT ionic liquids to illicit a hemolytic effect, ionic liquids were assessed for the ability to induce hemolysis of equine erythrocytes according to a previous method.[51] Briefly, 10 mL of fresh defribrinated equine blood was rinsed three times with an equal volume of PBS by centrifugation at 900g for 15 min. Erythrocytes were resuspended in PBS to a concentration of 4% (v/v). Erythrocyte suspension (100 μL) was added to each well of a 96-well microtiter plate and exposed to varying concentrations of ionic liquid for 1 h at 37 °C in an orbital incubator. Exposed solutions were subsequently centrifuged at 1000g for 15 min, and 100 μL was transferred to a fresh 96-well microtiter plate and spectrophotometrically read at 414 nm to determine hemoglobin release. Hexadecyltrimethylammonium bromide (8 mM) was used as a positive control (100% hemolysis) and PBS as a negative control (0% hemolysis). Samples were run in quadruplicate, and percentage hemolysis was calculated as follows [drawing 1]

P. aeruginosa (PA01) = assay: MIC and MBC by standardized broth dilution; assay type: cell-based, Pseudomonas aeruginosa; conditions: for MBC: 99.9% killing; for MBC / MIC: >1000 = beyond tested concentration range; for MIC: 24 h, MHB
Protocol: as §1, §2, §3

[1] = design: method as in PMID 29518336; conditions: cited from earlier work
[2] = design: method as in earlier work; conditions: ref 39 (Kruszewska et al.); cited from earlier work
P. aeruginosa = system: P. aeruginosa; design: method as in PMID 17655912; conditions: 10^6 cfu mL^–1 P. aeruginosa inoculum, within 6 h, concentrations as low as 0.08 mg/L; cited from earlier work
[3] = 5 μg mL^–1, equine erythrocytes
[4] = 25 μg mL^–1, equine erythrocytes

## CCCCC(CC)COC(=O)CC(C(=O)OCC(CC)CCCC)S(=O)(=O)[O-].CCCC[P+](CCO)(CCCC)CCCC (stereo not shown) [[P444 2OH][AOT], tributyl(hydroxyethyl)phosphonium docusate]
S. aureus (ATCC 6538)
  MBC: 250 μg mL^–1
  MIC: 62.5 μg mL^–1
Equine erythrocytes; [3]
  hemolysis: < 10%
Equine erythrocytes; [4]
  hemolysis: 99.39%
P. aeruginosa (PA01); P. aeruginosa
  MBC: >1000 μg mL^–1
  MIC: >1000 μg mL^–1

## CCCCC(CC)COC(=O)CC(C(=O)OCC(CC)CCCC)S(=O)(=O)[O-].CCCCCCCCCCCCCC[P+](CCCCCC)(CCCCCC)CCCCCC [[P666 14][AOT], Trihexyl(tetradecyl)phosphonium docusate]
S. aureus (ATCC 6538)
  MBC: 1000 μg mL^–1
  MIC: 500 μg mL^–1
Equine erythrocytes
  hemolytic activity (in words): not hemolytic
P. aeruginosa (PA01); P. aeruginosa
  MBC: >1000 μg mL^–1
  MIC: >1000 μg mL^–1

## CCCCCCCCCCCCCC[P+](CCCCCC)(CCCCCC)CCCCCC.O=S(=O)([N-]S(=O)(=O)C(F)(F)F)C(F)(F)F [[P666 14][Tf2N], Trihexyl(tetradecyl)phosphonium bis(trifluoromethylsulfonyl)imide]
S. aureus (ATCC 6538)
  MBC: >1000 μg mL^–1
  MIC: >1000 μg mL^–1
S. aureus (ATCC 6538); within the tested concentration range
  antibacterial activity / growth inhibition (in words): no antibacterial activity
[1]
  aqueous solubility: 0.26 mM
P. aeruginosa (PA01); P. aeruginosa
  MBC: >1000 μg mL^–1
  MIC: >1000 μg mL^–1
P. aeruginosa (PA01); P. aeruginosa, within the tested concentration range
  antibacterial activity / growth inhibition (in words): no antimicrobial activity

## CCCCC(CC)COC(=O)CC(C(=O)OCC(CC)CCCC)S(=O)(=O)[O-].CCCCCCCCCCCCCC[P+](CCCCCCCC)(CCCCCCCC)CCCCCCCC [[P888 14][AOT], trioctyl(tetradecyl)phosphonium docusate]
S. aureus (ATCC 6538)
  MIC potency relative to the other [AOT]-containing ionic liquids: 16–128 fold
  MBC: 7.81 μg mL^–1
  MIC: 3.91 μg mL^–1
Equine erythrocytes; [3]
  hemolysis: < 10%
Equine erythrocytes; [4]
  hemolysis: 102.3%
P. aeruginosa (PA01)
  rise of MBC against P. aeruginosa relative to S. aureus: 128 fold
  rise of MIC against P. aeruginosa relative to S. aureus: 64 fold
P. aeruginosa (PA01); P. aeruginosa
  MBC: 1000 μg mL^–1
  MIC: 250 μg mL^–1

## CCCCC(CC)COC(=O)CC(C(=O)OCC(CC)CCCC)S(=O)(=O)[O-].CCCCCCCCCCCCCCCCCC[P+](C)(CCCCCCCCCCCCCCCCCC)CCCCCCCCCCCCCCCCCC [[P181818 1][AOT], trioctadecyl(methyl)phosphonium docusate]
S. aureus (ATCC 6538)
  MBC: 500 μg mL^–1
  MIC: 250 μg mL^–1
Equine erythrocytes
  hemolytic activity (in words): not hemolytic
P. aeruginosa (PA01); P. aeruginosa
  MBC: >1000 μg mL^–1
  MIC: >1000 μg mL^–1

## CCCCC(CC)COC(=O)CC(C(=O)OCC(CC)CCCC)S(=O)(=O)O (stereo not shown) [sodium docusate]
[2]
  MIC: 3000 μg mL^–1

## Silver ions
P. aeruginosa
  eradication of inoculum: ≤ 99.999%
